Read-outs that look alike come from different tables or passages of the source. Ends that are not written are not given here.
T1: KAP25 alkaline phosphatase signal peptide signal peptide (Escherichia coli, UniProt P00634 = phosphatase)
T1 chain: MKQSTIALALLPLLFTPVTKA

B1: Signal peptidase I cytoplasmic domain (protein)
chain: IVRSFIYEPFQIPSGSMMPTLLIGDFILVEKFAYGIKDPIYQKTLIETGHPKRGDIVVFKYPEDPKLDYIKRAVGLPGDKVTYDPVSKELTIQPGCSSGQACENALPVTYSNVEPSDFVQTFSRRNGGEATSGFFEVPKNETKENGIRLSERKETLGDVTHRILTVPIAQDQVGMYYQQPGQQLATWIVPPGQYFMMGDNRDNSADSRYWGFVPEANLVGRATAIWMSFDKQEGEWPTGLRLSRIGGIH

Tests used:
SPase I Δ2-75 = SPase I Δ2-75 (Escherichia coli, UniProt P00803); conditions: data not shown
[1] = target: T1, KAP25 alkaline phosphatase signal …; test: fluorescence

Molecule	cleavage of KAP25 signal peptide (SPase I Δ2-75; 24 hours of incubation with the enzyme)	cleavage of KAP25 signal peptide (SPase I Δ2-75; 36 hours of incubation with the enzyme)	cleavage of KAP25 signal peptide (SPase I Δ2-75; 48 hours of incubation with the enzyme)	Kd [1]
KKKMKQSTIALALLPLLFTPVTKARTPEKKK-NH2 [KAP25]	about 7%	~19%	~27%	–
B1	–	–	–	250 nM
